Source: US10266577B2, “GLP-1 derivatives, and uses thereof” (Novo Nordisk A/S, priority 2013, dated 2019)
Square brackets hold non-standard residues; d marks the D form. Side chains are listed from the residue outwards. Peptide text beside a SMILES is read from it. * marks the point of attachment. Hexadecanoyl(16-SO3H) = O=C(CCCCCCCCCCCCCCCS(=O)(=O)O)*; Cya = N[C@@H](CS(=O)(=O)O)C(=O)O; Trx = NC[C@H]1CC[C@H](C(=O)O)CC1; AEEA = NCCOCCOCC(=O)O; Aib = CC(C)(N)C(=O)O

Assay: in vivo
Conditions: male, Göttingen, minipig, iv
Protocol: The purpose of this study is to determine the protraction in vivo of the GLP-1 derivatives after i.v. administration to minipigs, i.e. the prolongation of their time in the body and thereby their time of action. This is done in a pharmacokinetic (PK) study, where the terminal half-life of the derivative in question is determined. By terminal half-life is meant the time it takes to halve a certain plasma concentration in the terminal elimination phase.
Male Göttingen minipigs were obtained from Ellegaard Göttingen Minipigs (Dalmose, Denmark) approximately 7-14 months of age and weighing approximately 16-35 kg were used in the studies. The minipigs were housed either individually (pigs with permanent catheters) or in a group and fed restrictedly once or twice daily with SDS minipig diet (Special Diets Services, Essex, UK).
After at least 2 weeks of acclimatisation two permanent central venous catheters were implanted in vena cava caudalis or cranialis in each animal. The animals were allowed 1 week recovery after the surgery, and were then used for repeated pharmacokinetic studies with a suitable wash-out period between successive GLP-1 derivative dosings.
Blood samples (for example 0.8 ml) were collected in EDTA buffer (8 mM) and then centrifuged at 4° C. and 1942G for 10 minutes.
Plasma was pipetted into Micronic tubes on dry ice, and kept at −20° C. until analysed for plasma concentration of the respective GLP-1 compound using LOCI. Individual plasma concentration-time profiles were analyzed by a non-compartmental pharmacokinetic method in Phoenix v. 6.2 (Pharsight Inc., Mountain View, Calif., USA), or other relevant software for PK analysis, and the resulting terminal half-lives (harmonic mean) determined.

half-life [h]	Structure (SMILES)
140	CC[C@H](C)[C@H](NC(=O)[C@H](Cc1ccccc1)NC(=O)[C@H](CCC(=O)O)NC(=O)[C@H](CCCNC(=N)N)NC(=O)[C@H](C)NC(=O)[C@H](C)NC(=O)[C@H](CCC(N)=O)NC(=O)[C@H](CCCCNC(=O)COCCOCCNC(=O)COCCOCCNC(=O)[C@H](CS(=O)(=O)O)NC(=O)CCCCCCCCCCCCCCCS(=O)(=O)O)NC(=O)[C@H](CCC(=O)O)NC(=O)[C@H](CC(C)C)NC(=O)[C@H](Cc1ccc(O)cc1)NC(=O)[C@H](CCCCNC(=O)COCCOCCNC(=O)COCCOCCNC(=O)[C@H](CS(=O)(=O)O)NC(=O)CCCCCCCCCCCCCCCS(=O)(=O)O)NC(=O)[C@H](CO)NC(=O)[C@@H](NC(=O)[C@H](CC(=O)O)NC(=O)[C@H](CO)NC(=O)[C@@H](NC(=O)[C@H](Cc1ccccc1)NC(=O)[C@@H](NC(=O)CNC(=O)[C@H](CCC(=O)O)NC(=O)C(C)(C)NC(=O)[C@@H](N)Cc1c[nH]cn1)[C@@H](C)O)[C@@H](C)O)C(C)C)C(=O)N[C@@H](CCCCNC(=O)COCCOCCNC(=O)COCCOCCNC(=O)[C@H](CS(=O)(=O)O)NC(=O)CCCCCCCCCCCCCCCS(=O)(=O)O)C(=O)N[C@@H](Cc1c[nH]c2ccccc12)C(=O)N[C@@H](CC(C)C)C(=O)N[C@H](C(=O)N[C@@H](CCCNC(=N)N)C(=O)NCC(=O)N[C@@H](CCCNC(=N)N)C(=O)NCC(=O)O)C(C)C [Example 2] (H-H[Aib]EGTFTSDVSK([AEEA-AEEA-Cya-Hexadecanoyl(16-SO3H)])YLEK([AEEA-AEEA-Cya-Hexadecanoyl(16-SO3H)])QAAREFIK([AEEA-AEEA-Cya-Hexadecanoyl(16-SO3H)])WLVRGRG-OH; N-terminus and C-terminus assumed)
120	CC[C@H](C)[C@H](NC(=O)[C@H](Cc1ccccc1)NC(=O)[C@H](CCC(=O)O)NC(=O)[C@H](CCCCNC(=O)[C@@H](N)CCCCNC(=O)[C@H](CO)NC(=O)[C@H](CO)NC(=O)[C@H](CO)NC(=O)[C@H](CO)NC(=O)[C@H](CO)NC(=O)CC[C@H](NC(=O)CCCCCCCCCCCCCCCCC(=O)O)C(=O)O)NC(=O)[C@H](C)NC(=O)[C@H](C)NC(=O)[C@H](CCC(N)=O)NC(=O)CNC(=O)[C@H](CCC(=O)O)NC(=O)[C@H](CC(C)C)NC(=O)[C@H](Cc1ccc(O)cc1)NC(=O)[C@H](CCCCNC(=O)[C@@H](N)CCCCNC(=O)[C@H](CO)NC(=O)[C@H](CO)NC(=O)[C@H](CO)NC(=O)[C@H](CO)NC(=O)[C@H](CO)NC(=O)CC[C@H](NC(=O)CCCCCCCCCCCCCCCCC(=O)O)C(=O)O)NC(=O)[C@H](CO)NC(=O)[C@@H](NC(=O)[C@H](CC(=O)O)NC(=O)[C@H](CO)NC(=O)[C@@H](NC(=O)[C@H](Cc1ccccc1)NC(=O)[C@@H](NC(=O)CNC(=O)[C@H](CCC(=O)O)NC(=O)C(C)(C)NC(=O)[C@@H](N)Cc1c[nH]cn1)[C@@H](C)O)[C@@H](C)O)C(C)C)C(=O)N[C@@H](C)C(=O)N[C@@H](Cc1c[nH]c2ccccc12)C(=O)N[C@@H](CC(C)C)C(=O)N[C@H](C(=O)N[C@@H](CCCNC(=N)N)C(=O)NCC(=O)N[C@@H](CCCNC(=N)N)C(=O)N[C@@H](CCCCNC(=O)[C@@H](N)CCCCNC(=O)[C@H](CO)NC(=O)[C@H](CO)NC(=O)[C@H](CO)NC(=O)[C@H](CO)NC(=O)[C@H](CO)NC(=O)CC[C@H](NC(=O)CCCCCCCCCCCCCCCCC(=O)O)C(=O)O)C(=O)O)C(C)C [Example 3]
120	CC[C@H](C)[C@H](NC(=O)[C@H](Cc1ccccc1)NC(=O)[C@H](CCC(=O)O)NC(=O)[C@H](CCCNC(=N)N)NC(=O)[C@H](C)NC(=O)[C@H](C)NC(=O)[C@H](CCC(N)=O)NC(=O)[C@H](CCCCNC(=O)COCCOCCNC(=O)COCCOCCNC(=O)[C@H](CS(=O)(=O)O)NC(=O)[C@H]1CC[C@H](CNC(=O)CCCCCCCCCCCCCCCS(=O)(=O)O)CC1)NC(=O)[C@H](CCC(=O)O)NC(=O)[C@H](CC(C)C)NC(=O)[C@H](Cc1ccc(O)cc1)NC(=O)[C@H](CCCCNC(=O)COCCOCCNC(=O)COCCOCCNC(=O)[C@H](CS(=O)(=O)O)NC(=O)[C@H]1CC[C@H](CNC(=O)CCCCCCCCCCCCCCCS(=O)(=O)O)CC1)NC(=O)[C@H](CO)NC(=O)[C@@H](NC(=O)[C@H](CC(=O)O)NC(=O)[C@H](CO)NC(=O)[C@@H](NC(=O)[C@H](Cc1ccccc1)NC(=O)[C@@H](NC(=O)CNC(=O)[C@H](CCC(=O)O)NC(=O)C(C)(C)NC(=O)[C@@H](N)Cc1c[nH]cn1)[C@@H](C)O)[C@@H](C)O)C(C)C)C(=O)N[C@@H](CCCCNC(=O)COCCOCCNC(=O)COCCOCCNC(=O)[C@H](CS(=O)(=O)O)NC(=O)[C@H]1CC[C@H](CNC(=O)CCCCCCCCCCCCCCCS(=O)(=O)O)CC1)C(=O)N[C@@H](Cc1c[nH]c2ccccc12)C(=O)N[C@@H](CC(C)C)C(=O)N[C@H](C(=O)N[C@@H](CCCNC(=N)N)C(=O)NCC(=O)N[C@@H](CCCNC(=N)N)C(=O)NCC(=O)O)C(C)C [Example 4] (H-H[Aib]EGTFTSDVSK([AEEA-AEEA-Cya-Trx-Hexadecanoyl(16-SO3H)])YLEK([AEEA-AEEA-Cya-Trx-Hexadecanoyl(16-SO3H)])QAAREFIK([AEEA-AEEA-Cya-Trx-Hexadecanoyl(16-SO3H)])WLVRGRG-OH; N-terminus and C-terminus assumed)
138	CC[C@H](C)[C@H](NC(=O)[C@H](Cc1ccccc1)NC(=O)[C@H](CCC(=O)O)NC(=O)[C@H](CCCCNC(=O)[C@H](CO)NC(=O)[C@H](CO)NC(=O)[C@H](CO)NC(=O)[C@H](CO)NC(=O)[C@H](CO)NC(=O)[C@H](CO)NC(=O)CC[C@H](NC(=O)CCCCCCCCCCCCCCCCC(=O)O)C(=O)O)NC(=O)[C@H](C)NC(=O)[C@H](C)NC(=O)[C@H](CCC(N)=O)NC(=O)CNC(=O)[C@H](CCC(=O)O)NC(=O)[C@H](CC(C)C)NC(=O)[C@H](Cc1ccc(O)cc1)NC(=O)[C@H](CCCCNC(=O)[C@H](CO)NC(=O)[C@H](CO)NC(=O)[C@H](CO)NC(=O)[C@H](CO)NC(=O)[C@H](CO)NC(=O)[C@H](CO)NC(=O)CC[C@H](NC(=O)CCCCCCCCCCCCCCCCC(=O)O)C(=O)O)NC(=O)[C@H](CO)NC(=O)[C@@H](NC(=O)[C@H](CC(=O)O)NC(=O)[C@H](CO)NC(=O)[C@@H](NC(=O)[C@H](Cc1ccccc1)NC(=O)[C@@H](NC(=O)CNC(=O)[C@H](CCC(=O)O)NC(=O)C(C)(C)NC(=O)[C@@H](N)Cc1c[nH]cn1)[C@@H](C)O)[C@@H](C)O)C(C)C)C(=O)N[C@@H](C)C(=O)N[C@@H](Cc1c[nH]c2ccccc12)C(=O)N[C@@H](CC(C)C)C(=O)N[C@H](C(=O)N[C@@H](CCCNC(=N)N)C(=O)NCC(=O)N[C@@H](CCCNC(=N)N)C(=O)N[C@@H](CCCCNC(=O)[C@H](CO)NC(=O)[C@H](CO)NC(=O)[C@H](CO)NC(=O)[C@H](CO)NC(=O)[C@H](CO)NC(=O)[C@H](CO)NC(=O)CC[C@H](NC(=O)CCCCCCCCCCCCCCCCC(=O)O)C(=O)O)C(=O)O)C(C)C [Example 8]
